# Test results taken from ChEMBL document CHEMBL1147167, “New 1,3-dioxolane and 1,3-dioxane derivatives as effective modulators to overcome multidrug resistance” (2007).
# Tested on: Caco-2
# Assay: Antiproliferative activity against human Caco-2 cells assessed as cell viability by MTT assay after 48 hrs
# Assay type: functional
# Conditions: not given
row,SMILES,IC10 [µM]
1,c1ccc(C(CCCCN2CCN(CCCOc3ccc(C4O[C@@H](c5ccccc5)[C@H](c5ccccc5)O4)cc3)CC2)c2ccccc2)cc1 (relative stereo),15.9
2,CN1CCN(CCCOc2ccc(C3O[C@H](c4ccccc4)[C@@H](c4ccccc4)O3)cc2)CC1 (relative stereo),19.5

# Same assay, conditions: Homo sapiens, Caco-2, 48 h; read-out: IC10
row,SMILES,IC10 [µM]
1,c1ccc(C(CCCCN2CCN(CCCOc3ccc(C4O[C@@H](c5ccccc5)[C@H](c5ccccc5)O4)cc3)CC2)c2ccccc2)cc1,17.1
2,CN1CCN(CCCOc2ccc(C3OC(c4ccccc4Cl)C(c4ccccc4Cl)O3)cc2)CC1 (configuration not stated),19.5
3,c1ccc(C(CCCCN2CCN(CCCCOc3ccc(C4OC(c5ccccc5)C(c5ccccc5)O4)cc3)CC2)c2ccccc2)cc1 (configuration not stated),17.5
4,c1ccc(C(CCN2CCN(CCCOc3ccc(C4OC(c5ccccc5)C(c5ccccc5)O4)cc3)CC2)c2ccccc2)cc1 (configuration not stated),18.5
5,c1ccc(C2OC(c3ccc(OCCCN4CCCCC4)cc3)OC2c2ccccc2)cc1 (configuration not stated),15.3
6,CN1CCN(CCCCOc2ccc(C3OC(c4ccccc4)C(c4ccccc4)O3)cc2)CC1 (configuration not stated),13.8
7,OCCN1CCN(CCCOc2ccc(C3OC(c4ccccc4)C(c4ccccc4)O3)cc2)CC1 (configuration not stated),76.6
8,CN1CCN(CCCOc2ccc(C3O[C@H](c4ccccc4)[C@H](c4ccccc4)O3)cc2)CC1 (some centres not stated),21.1
9,CC1OC(c2ccccc2)(c2ccccc2)OCC1CN1CCN(CCCCC(c2ccccc2)c2ccccc2)CC1 (configuration not stated),6.1
10,CC1OC(c2ccccc2)(c2ccccc2)OCC1CN1CCN(C)CC1 (configuration not stated),9.7
11,c1ccc(C(CCCCN2CCN(CCOc3ccc(C4OC(c5ccccc5)C(c5ccccc5)O4)cc3)CC2)c2ccccc2)cc1 (configuration not stated),14.7
12,c1ccc(C(CCCN2CCN(CCCOc3ccc(C4OC(c5ccccc5)C(c5ccccc5)O4)cc3)CC2)c2ccccc2)cc1 (configuration not stated),12.4
13,c1ccc(C(CCCCN2CCN(CCCOc3ccc(C4O[C@H](c5ccccc5)[C@H](c5ccccc5)O4)cc3)CC2)c2ccccc2)cc1 (some centres not stated),16.8
14,c1ccc(C2(c3ccccc3)OCC(CCCCN3CCCCC3)O2)cc1 (configuration not stated),18.1
15,CN1CCN(CCCOc2ccc(C3O[C@H](c4ccccc4)[C@@H](c4ccccc4)O3)cc2)CC1,20.4
16,CN1CCN(CCCOc2ccc(C3OC(c4ccc(F)cc4)C(c4ccc(F)cc4)O3)cc2)CC1 (configuration not stated),18.8
17,c1ccc(C2OC(c3ccc(OCCCN4CCN(C(c5ccccc5)c5ccccc5)CC4)cc3)OC2c2ccccc2)cc1 (configuration not stated),16.4
18,c1ccc(C(CCCCN2CCN(CCCCC3COC(c4ccccc4)(c4ccccc4)O3)CC2)c2ccccc2)cc1 (configuration not stated),5.85
19,c1ccc(C(CCCCN2CCN(CCCOc3ccc(C4O[C@H](c5ccccc5)[C@@H](c5ccccc5)O4)cc3)CC2)c2ccccc2)cc1,16.2
20,c1ccc(C(CN2CCN(CCCOc3ccc(C4OC(c5ccccc5)C(c5ccccc5)O4)cc3)CC2)c2ccccc2)cc1 (configuration not stated),6.1
21,OCCN1CCN(CCCCC2COC(c3ccccc3)(c3ccccc3)O2)CC1 (configuration not stated),98.3
22,CN1CCN(CCCCC2COC(c3ccccc3)(c3ccccc3)O2)CC1 (configuration not stated),10.5
23,CN1CCN(CCOc2ccc(C3OC(c4ccccc4)C(c4ccccc4)O3)cc2)CC1 (configuration not stated),8.6
24,CN1CCN(CCCOc2ccc(C3O[C@@H](c4ccccc4)[C@H](c4ccccc4)O3)cc2)CC1,19.9
25,CN1CCN(CCCN2c3ccccc3Sc3ccc(C(F)(F)F)cc32)CC1 [TRIFLUOPERAZINE],11.3
